Article PMC9532703, “A novel small molecule RK-019 inhibits FGFR2-amplification gastric cancer cell proliferation and induces apoptosis in vitro and in vivo” (Frontiers in Pharmacology, 2022)

Key:
Assay in all cases: Kinase selectivity panel
Assay type in all cases: biochemical
CDKL4(h) = target: T1, CDKL4(h) (Homo sapiens, UniProt Q5MAI5); details: read-out: Inhibition(%) @ 1 µM RK-019
T1 construct: purchased Eurofins Discovery Services (KinaseProfiler)
Summary of the method: (§1)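 Recombinant human kinase incubated with 1 µM compound; ATP-site competition binding quantified in vitro as inhibition ratio.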

CaMKIδ(h) = target: T2, CaMKIδ(h) (Homo sapiens, UniProt Q8IU85); details: read-out: Inhibition(%) @ 1 µM RK-019
T2 construct: purchased Eurofins Discovery Services (KinaseProfiler)
Summary of the method: as §1

GRK7(h) = target: T3, GRK7(h) (Homo sapiens, UniProt Q8WTQ7); details: read-out: Inhibition(%) @ 1 µM RK-019
T3 construct: purchased Eurofins Discovery Services (KinaseProfiler)
T3 sequence (Q8WTQ7 whole entry): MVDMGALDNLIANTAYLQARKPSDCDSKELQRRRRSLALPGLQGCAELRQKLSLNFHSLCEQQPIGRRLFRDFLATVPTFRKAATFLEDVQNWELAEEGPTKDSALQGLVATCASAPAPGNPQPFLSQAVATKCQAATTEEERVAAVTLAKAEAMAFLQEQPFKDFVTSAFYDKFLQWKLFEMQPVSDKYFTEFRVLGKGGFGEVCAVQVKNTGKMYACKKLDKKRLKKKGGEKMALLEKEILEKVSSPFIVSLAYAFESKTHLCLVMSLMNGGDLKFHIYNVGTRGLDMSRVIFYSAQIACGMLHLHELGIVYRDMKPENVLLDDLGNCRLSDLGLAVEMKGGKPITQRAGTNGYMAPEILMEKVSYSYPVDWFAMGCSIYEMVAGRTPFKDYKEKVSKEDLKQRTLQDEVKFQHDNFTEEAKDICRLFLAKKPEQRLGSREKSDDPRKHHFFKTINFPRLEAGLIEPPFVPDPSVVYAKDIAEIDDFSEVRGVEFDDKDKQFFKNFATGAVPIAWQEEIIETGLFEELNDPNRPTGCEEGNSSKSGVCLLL
Summary of the method: as §1

FGFR1(h) = target: T4, FGFR1(h) (Homo sapiens, UniProt P11362)
T4 construct: purchased Eurofins Discovery Services (KinaseProfiler)
T4 sequence (P11362 22-822): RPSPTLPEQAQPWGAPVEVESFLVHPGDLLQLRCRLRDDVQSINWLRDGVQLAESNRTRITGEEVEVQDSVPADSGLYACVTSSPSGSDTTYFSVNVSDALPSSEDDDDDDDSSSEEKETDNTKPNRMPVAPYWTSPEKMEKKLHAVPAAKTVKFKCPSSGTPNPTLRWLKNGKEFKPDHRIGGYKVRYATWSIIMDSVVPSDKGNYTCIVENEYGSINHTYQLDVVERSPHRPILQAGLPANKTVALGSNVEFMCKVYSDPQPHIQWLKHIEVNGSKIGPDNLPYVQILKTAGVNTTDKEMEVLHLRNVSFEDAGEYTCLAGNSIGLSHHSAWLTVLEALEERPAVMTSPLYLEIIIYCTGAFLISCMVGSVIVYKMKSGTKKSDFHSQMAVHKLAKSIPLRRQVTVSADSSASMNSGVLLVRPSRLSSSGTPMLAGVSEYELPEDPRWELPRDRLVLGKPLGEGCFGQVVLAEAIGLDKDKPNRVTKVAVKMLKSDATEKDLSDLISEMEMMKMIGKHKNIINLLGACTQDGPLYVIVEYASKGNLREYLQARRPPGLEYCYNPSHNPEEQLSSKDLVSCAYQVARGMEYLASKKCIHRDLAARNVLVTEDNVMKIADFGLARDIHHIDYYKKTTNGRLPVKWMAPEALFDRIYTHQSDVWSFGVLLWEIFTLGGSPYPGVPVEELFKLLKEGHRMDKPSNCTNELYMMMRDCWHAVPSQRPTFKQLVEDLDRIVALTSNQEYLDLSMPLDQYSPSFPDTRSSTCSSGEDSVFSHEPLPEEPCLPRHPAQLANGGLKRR
Summary of the method: as §1

CK1δ(h) = target: T5, CK1δ(h) (Homo sapiens, UniProt P48730); details: read-out: Inhibition(%) @ 1 µM RK-019
T5 construct: purchased Eurofins Discovery Services (KinaseProfiler)
Summary of the method: as §1

Mer(h) = target: T6, Mer(h) (Homo sapiens, UniProt Q12866); details: read-out: Inhibition(%) @ 1 µM RK-019
T6 construct: purchased Eurofins Discovery Services (KinaseProfiler)
Summary of the method: as §1

NEK4(h) = target: T7, NEK4(h) (Homo sapiens, UniProt P51957); details: read-out: Inhibition(%) @ 1 µM RK-019
T7 construct: purchased Eurofins Discovery Services (KinaseProfiler)
T7 sequence (P51957 whole entry): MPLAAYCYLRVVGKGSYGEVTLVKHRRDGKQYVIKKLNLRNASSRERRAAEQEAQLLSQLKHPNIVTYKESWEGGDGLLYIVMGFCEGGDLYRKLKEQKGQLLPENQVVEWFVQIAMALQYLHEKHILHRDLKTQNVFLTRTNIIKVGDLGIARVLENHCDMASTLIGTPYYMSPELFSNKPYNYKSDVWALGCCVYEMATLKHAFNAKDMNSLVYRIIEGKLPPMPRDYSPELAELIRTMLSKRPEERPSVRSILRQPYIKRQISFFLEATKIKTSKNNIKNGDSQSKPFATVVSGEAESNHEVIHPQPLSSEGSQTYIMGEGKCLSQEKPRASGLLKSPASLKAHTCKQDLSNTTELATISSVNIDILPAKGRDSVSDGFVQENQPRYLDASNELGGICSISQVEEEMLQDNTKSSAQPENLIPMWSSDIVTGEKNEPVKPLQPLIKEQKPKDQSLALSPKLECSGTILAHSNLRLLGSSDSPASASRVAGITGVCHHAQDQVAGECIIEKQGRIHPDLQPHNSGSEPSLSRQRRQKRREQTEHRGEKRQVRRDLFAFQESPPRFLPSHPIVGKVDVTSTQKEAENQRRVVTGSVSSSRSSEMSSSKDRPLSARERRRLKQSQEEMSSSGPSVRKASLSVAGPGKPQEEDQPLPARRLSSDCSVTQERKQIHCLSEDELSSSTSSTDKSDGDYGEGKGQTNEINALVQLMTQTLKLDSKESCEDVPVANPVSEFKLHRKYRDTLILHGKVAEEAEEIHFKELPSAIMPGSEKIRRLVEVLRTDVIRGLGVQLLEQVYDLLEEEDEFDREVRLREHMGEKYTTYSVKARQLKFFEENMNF
Summary of the method: as §1

SNRK(h) = target: T8, SNRK(h) (Homo sapiens, UniProt Q9NRH2); details: read-out: Inhibition(%) @ 1 µM RK-019
T8 construct: purchased Eurofins Discovery Services (KinaseProfiler)
T8 sequence (Q9NRH2 whole entry): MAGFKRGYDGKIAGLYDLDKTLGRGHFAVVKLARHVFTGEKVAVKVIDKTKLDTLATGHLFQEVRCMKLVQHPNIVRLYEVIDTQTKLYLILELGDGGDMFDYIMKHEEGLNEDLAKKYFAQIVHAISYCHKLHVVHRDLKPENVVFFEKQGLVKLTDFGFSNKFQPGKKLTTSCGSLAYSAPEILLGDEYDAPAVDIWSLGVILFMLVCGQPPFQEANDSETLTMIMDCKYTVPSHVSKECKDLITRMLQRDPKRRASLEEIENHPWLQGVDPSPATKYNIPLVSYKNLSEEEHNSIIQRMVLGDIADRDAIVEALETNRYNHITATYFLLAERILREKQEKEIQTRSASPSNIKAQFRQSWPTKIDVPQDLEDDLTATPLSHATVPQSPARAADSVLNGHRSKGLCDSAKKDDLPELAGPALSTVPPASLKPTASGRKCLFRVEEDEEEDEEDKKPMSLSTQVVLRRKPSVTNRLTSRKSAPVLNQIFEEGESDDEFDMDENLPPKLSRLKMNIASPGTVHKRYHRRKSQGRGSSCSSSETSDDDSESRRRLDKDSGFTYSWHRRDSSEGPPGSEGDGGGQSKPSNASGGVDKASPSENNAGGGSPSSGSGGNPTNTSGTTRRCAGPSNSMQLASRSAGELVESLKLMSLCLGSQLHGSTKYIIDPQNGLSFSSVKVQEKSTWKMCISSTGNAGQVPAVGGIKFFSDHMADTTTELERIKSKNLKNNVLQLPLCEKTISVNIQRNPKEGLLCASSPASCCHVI
Summary of the method: as §1

TTBK1(h) = target: T9, TTBK1(h) (Homo sapiens, UniProt Q5TCY1); details: read-out: Inhibition(%) @ 1 µM RK-019
T9 construct: purchased Eurofins Discovery Services (KinaseProfiler)
Summary of the method: as §1

Blk(h) = target: T10, Blk(h) (Homo sapiens, UniProt P51451); details: read-out: Inhibition(%) @ 1 µM RK-019
T10 construct: purchased Eurofins Discovery Services (KinaseProfiler)
T10 sequence (P51451 whole entry): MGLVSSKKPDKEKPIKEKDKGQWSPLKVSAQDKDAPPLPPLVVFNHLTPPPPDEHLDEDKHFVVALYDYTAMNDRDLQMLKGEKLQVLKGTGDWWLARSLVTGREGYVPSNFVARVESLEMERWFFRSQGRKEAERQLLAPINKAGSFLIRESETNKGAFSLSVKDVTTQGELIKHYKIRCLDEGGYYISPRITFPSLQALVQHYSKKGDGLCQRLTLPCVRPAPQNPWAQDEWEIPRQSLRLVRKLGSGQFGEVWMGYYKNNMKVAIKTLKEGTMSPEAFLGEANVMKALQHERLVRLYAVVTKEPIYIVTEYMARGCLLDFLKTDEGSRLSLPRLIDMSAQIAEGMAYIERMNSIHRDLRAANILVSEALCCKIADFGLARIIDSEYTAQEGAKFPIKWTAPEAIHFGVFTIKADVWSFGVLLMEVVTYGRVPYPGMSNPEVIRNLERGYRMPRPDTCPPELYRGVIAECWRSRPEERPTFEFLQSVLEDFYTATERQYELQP
Summary of the method: as §1

CLK3(h) = target: T11, CLK3(h) (Homo sapiens, UniProt P49761); details: read-out: Inhibition(%) @ 1 µM RK-019
T11 construct: purchased Eurofins Discovery Services (KinaseProfiler)
Summary of the method: as §1

TrkC(h) = target: T12, TrkC(h) (Homo sapiens, UniProt Q16288); details: read-out: Inhibition(%) @ 1 µM RK-019
T12 construct: purchased Eurofins Discovery Services (KinaseProfiler)
Summary of the method: as §1

MLCK(h) = target: T13, MLCK(h) (Homo sapiens, UniProt Q15746); details: read-out: Inhibition(%) @ 1 µM RK-019
T13 construct: purchased Eurofins Discovery Services (KinaseProfiler)
Summary of the method: as §1

cKit(V654A)(h) = target: T14, cKit(V654A)(h) (Homo sapiens, UniProt P10721, V654A); details: read-out: Inhibition(%) @ 1 µM RK-019
T14 construct: purchased Eurofins Discovery Services (KinaseProfiler)
Summary of the method: as §1

Tie2 (h) = target: T15, Tie2 (h) (Homo sapiens, UniProt Q02763); details: read-out: Inhibition(%) @ 1 µM RK-019
T15 construct: purchased Eurofins Discovery Services (KinaseProfiler)
Summary of the method: as §1

mTOR/FKBP12(h) = target: T16, mTOR/FKBP12(h) (Homo sapiens, UniProt P42345); details: read-out: Inhibition(%) @ 1 µM RK-019
T16 construct: purchased Eurofins Discovery Services (KinaseProfiler)
Summary of the method: as §1

ZAK(h) = target: T17, ZAK(h) (Homo sapiens, UniProt Q9NYL2); details: read-out: Inhibition(%) @ 1 µM RK-019
T17 construct: purchased Eurofins Discovery Services (KinaseProfiler)
Summary of the method: as §1

IRE1(h) = target: T18, IRE1(h) (Homo sapiens, UniProt O75460); details: read-out: Inhibition(%) @ 1 µM RK-019
T18 construct: purchased Eurofins Discovery Services (KinaseProfiler)
Summary of the method: as §1

HIPK1(h) = target: T19, HIPK1(h) (Homo sapiens, UniProt Q86Z02); details: read-out: Inhibition(%) @ 1 µM RK-019
T19 construct: purchased Eurofins Discovery Services (KinaseProfiler)
Summary of the method: as §1

WNK3(h) = target: T20, WNK3(h) (Homo sapiens, UniProt Q9BYP7); details: read-out: Inhibition(%) @ 1 µM RK-019
T20 construct: purchased Eurofins Discovery Services (KinaseProfiler)
Summary of the method: as §1

PKCβII(h) = target: T21, PKCβII(h) (Homo sapiens, UniProt P05771); details: read-out: Inhibition(%) @ 1 µM RK-019
T21 construct: purchased Eurofins Discovery Services (KinaseProfiler)
Summary of the method: as §1

PIP5K1g(h) = target: T22, PIP5K1g(h) (Homo sapiens, UniProt O60331); details: read-out: Inhibition(%) @ 1 µM RK-019
T22 construct: purchased Eurofins Discovery Services (KinaseProfiler)
Summary of the method: as §1

GRK3(h) = target: T23, GRK3(h) (Homo sapiens, UniProt P35626); details: read-out: Inhibition(%) @ 1 µM RK-019
T23 construct: purchased Eurofins Discovery Services (KinaseProfiler)
Summary of the method: as §1

PRAK(h) = target: T24, PRAK(h) (Homo sapiens, UniProt Q8IW41); details: read-out: Inhibition(%) @ 1 µM RK-019
T24 construct: purchased Eurofins Discovery Services (KinaseProfiler)
Summary of the method: as §1

SGK(h) = target: T25, SGK(h) (Homo sapiens, UniProt O00141); details: read-out: Inhibition(%) @ 1 µM RK-019
T25 construct: purchased Eurofins Discovery Services (KinaseProfiler)
Summary of the method: as §1

Pim-2(h) = target: T26, Pim-2(h) (Homo sapiens, UniProt Q9P1W9); details: read-out: Inhibition(%) @ 1 µM RK-019
T26 construct: purchased Eurofins Discovery Services (KinaseProfiler)
Summary of the method: as §1

IRR(h) = target: T27, IRR(h) (Homo sapiens, UniProt P14616); details: read-out: Inhibition(%) @ 1 µM RK-019
T27 construct: purchased Eurofins Discovery Services (KinaseProfiler)
Summary of the method: as §1

Plk4(h) = target: T28, Plk4(h) (Homo sapiens, UniProt O00444); details: read-out: Inhibition(%) @ 1 µM RK-019
T28 construct: purchased Eurofins Discovery Services (KinaseProfiler)
T28 sequence (O00444 whole entry): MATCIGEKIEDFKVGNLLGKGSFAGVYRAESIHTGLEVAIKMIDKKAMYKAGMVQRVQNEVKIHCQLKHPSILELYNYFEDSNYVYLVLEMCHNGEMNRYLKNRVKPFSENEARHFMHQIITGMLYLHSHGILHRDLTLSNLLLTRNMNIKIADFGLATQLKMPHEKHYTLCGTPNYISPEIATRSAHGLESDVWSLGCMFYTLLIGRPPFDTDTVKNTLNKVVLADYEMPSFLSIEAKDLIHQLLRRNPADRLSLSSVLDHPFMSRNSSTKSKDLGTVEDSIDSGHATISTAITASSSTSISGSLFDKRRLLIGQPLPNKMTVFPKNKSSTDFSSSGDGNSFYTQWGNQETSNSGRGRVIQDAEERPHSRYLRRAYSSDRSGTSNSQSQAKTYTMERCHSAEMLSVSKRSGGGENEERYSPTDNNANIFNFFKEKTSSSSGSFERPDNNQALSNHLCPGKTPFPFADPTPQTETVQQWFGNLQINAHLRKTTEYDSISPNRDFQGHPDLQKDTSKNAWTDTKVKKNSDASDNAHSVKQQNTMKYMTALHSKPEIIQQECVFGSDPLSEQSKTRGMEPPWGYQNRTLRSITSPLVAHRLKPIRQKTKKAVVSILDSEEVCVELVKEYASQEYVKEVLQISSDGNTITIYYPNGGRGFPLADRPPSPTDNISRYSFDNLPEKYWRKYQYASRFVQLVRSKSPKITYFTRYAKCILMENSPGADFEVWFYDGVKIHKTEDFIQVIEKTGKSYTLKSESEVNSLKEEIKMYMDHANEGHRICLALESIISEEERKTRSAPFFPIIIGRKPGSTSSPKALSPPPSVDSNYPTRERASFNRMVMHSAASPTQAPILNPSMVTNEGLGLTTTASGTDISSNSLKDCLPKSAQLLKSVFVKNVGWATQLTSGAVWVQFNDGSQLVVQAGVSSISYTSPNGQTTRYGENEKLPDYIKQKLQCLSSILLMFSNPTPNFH
Summary of the method: as §1

PDGFRα(V561D)(h) = target: T29, PDGFRα(V561D)(h) (Homo sapiens, UniProt P16234, V561D); details: read-out: Inhibition(%) @ 1 µM RK-019
T29 construct: purchased Eurofins Discovery Services (KinaseProfiler)
Summary of the method: as §1

IR(h) = target: T30, IR(h) (Homo sapiens, UniProt P06213); details: read-out: Inhibition(%) @ 1 µM RK-019
T30 construct: purchased Eurofins Discovery Services (KinaseProfiler)
Summary of the method: as §1

[1] = target: T31, PI3 Kinase (p110a/p65a)(m) (Mus musculus, UniProt P42337); details: read-out: Inhibition(%) @ 1 µM RK-019
T31 construct: purchased Eurofins Discovery Services (KinaseProfiler)

PKBγ(h) = target: T32, PKBγ(h) (Homo sapiens, UniProt Q9Y243); details: read-out: Inhibition(%) @ 1 µM RK-019
T32 construct: purchased Eurofins Discovery Services (KinaseProfiler)
T32 sequence (Q9Y243 whole entry): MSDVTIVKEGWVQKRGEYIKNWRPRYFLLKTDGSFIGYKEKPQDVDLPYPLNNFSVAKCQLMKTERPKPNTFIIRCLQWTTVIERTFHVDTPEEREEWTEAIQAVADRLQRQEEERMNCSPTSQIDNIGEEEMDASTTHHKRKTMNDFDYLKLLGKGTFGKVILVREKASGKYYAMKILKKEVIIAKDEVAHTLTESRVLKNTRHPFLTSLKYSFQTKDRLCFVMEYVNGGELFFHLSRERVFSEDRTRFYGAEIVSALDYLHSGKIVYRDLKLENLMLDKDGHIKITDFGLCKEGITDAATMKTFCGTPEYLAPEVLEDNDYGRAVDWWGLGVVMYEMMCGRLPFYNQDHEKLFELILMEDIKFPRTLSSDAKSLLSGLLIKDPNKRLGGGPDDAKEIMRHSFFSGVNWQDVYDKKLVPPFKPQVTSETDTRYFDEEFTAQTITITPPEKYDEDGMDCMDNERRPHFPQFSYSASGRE
Summary of the method: as §1

[2] = target: T33, PI3 Kinase (p110b/p85a)(h) (Homo sapiens, UniProt P42338); details: read-out: Inhibition(%) @ 1 µM RK-019
T33 construct: purchased Eurofins Discovery Services (KinaseProfiler)
Summary of the method: as §1

PhKγ1(h) = target: T34, PhKγ1(h) (Homo sapiens, UniProt Q16816); details: read-out: Inhibition(%) @ 1 µM RK-019
T34 construct: purchased Eurofins Discovery Services (KinaseProfiler)
Summary of the method: as §1

cKit(h) = target: T35, cKit(h) (Homo sapiens, UniProt P10721); details: read-out: Inhibition(%) @ 1 µM RK-019
T35 construct: purchased Eurofins Discovery Services (KinaseProfiler)
Summary of the method: as §1

Aurora-C(h) = target: T36, Aurora-C(h) (Homo sapiens, UniProt Q9UQB9); details: read-out: Inhibition(%) @ 1 µM RK-019
T36 construct: purchased Eurofins Discovery Services (KinaseProfiler)
Summary of the method: as §1

SRPK1(h) = target: T37, SRPK1(h) (Homo sapiens, UniProt Q96SB4); details: read-out: Inhibition(%) @ 1 µM RK-019
T37 construct: purchased Eurofins Discovery Services (KinaseProfiler)
Summary of the method: as §1

## COc1cc(OC)cc(N(CCN[C@H](C)CO)c2ccc3ncc(-c4cnn(C)c4)c(=O)n3c2)c1 [RK-019, (R)-7-((3,5-dimethoxyphenyl) (2-((1-hydroxypropan-2-yl)amino)ethyl)amino)-3-(1-methyl-1H-pyrazol-4-yl)-4H-pyrido [1,2-a]pyrimidin-4-one]
CDKL4(h)
  activity at 1 µM: 90%
CaMKIδ(h)
  activity at 1 µM: 98%
GRK7(h)
  activity at 1 µM: 108%
FGFR1(h); FGFR1(h), read-out: Inhibition(%) @ 1 µM RK-019
  activity at 1 µM: -1%
FGFR1(h); FGFR1, 1 µM, read-out: inhibition (hit in panel)
  inhibition at 1 µM: > 90%
CK1δ(h)
  activity at 1 µM: 94%
Mer(h)
  activity at 1 µM: 108%
NEK4(h)
  activity at 1 µM: 109%
SNRK(h)
  activity at 1 µM: 92%
TTBK1(h)
  activity at 1 µM: 90%
Blk(h)
  activity at 1 µM: 70%
CLK3(h)
  activity at 1 µM: 102%
TrkC(h)
  activity at 1 µM: 86%
MLCK(h)
  activity at 1 µM: 92%
cKit(V654A)(h)
  activity at 1 µM: 104%
Tie2 (h)
  activity at 1 µM: 105%
mTOR/FKBP12(h)
  activity at 1 µM: 92%
ZAK(h)
  activity at 1 µM: 80%
IRE1(h)
  activity at 1 µM: 93%
HIPK1(h)
  activity at 1 µM: 93%
WNK3(h)
  activity at 1 µM: 110%
PKCβII(h)
  activity at 1 µM: 111%
PIP5K1g(h)
  activity at 1 µM: 97%
GRK3(h)
  activity at 1 µM: 123%
PRAK(h)
  activity at 1 µM: 95%
SGK(h)
  activity at 1 µM: 104%
Pim-2(h)
  activity at 1 µM: 98%
IRR(h)
  activity at 1 µM: 104%
Plk4(h)
  activity at 1 µM: 91%
PDGFRα(V561D)(h)
  activity at 1 µM: 1%
IR(h)
  activity at 1 µM: 118%
[1]
  activity at 1 µM: 100%
PKBγ(h)
  activity at 1 µM: 94%
[2]
  activity at 1 µM: 100%
PhKγ1(h)
  activity at 1 µM: 93%
cKit(h)
  activity at 1 µM: 73%
Aurora-C(h)
  activity at 1 µM: 86%
SRPK1(h)
  activity at 1 µM: 112%
